Source: patent US9480259B2, “Pyrazolopyrans having herbicidal and pharmaceutical properties” (BASF SE, priority 2012, dated 2016)

Molecular target: Arabidopsis thaliana SHMT
Test: SHMT activity assay (ED50 SHMT), coupled with N5,N10-CH2-THF dehydrogenase, NADH at 340 nm
Format: biochemical
Procedure: Determination of the ED50 SHMT was carried out as described hereinunder.
Purification of Arabidopsis thaliana SHMT
The following buffers were used during the purification protocol:
Buffer A (Lysis and Wash Buffer): • 20 mM Na-Phosphat (pH 7,4) • 500 mM NaCI • 40 mM Imidazole • 1.0 mM L-Serine • 0.5 mM Pyridoxal-5-phosphate • 0.5 mM DTT
Buffer B (Elution Buffer): • 20 mM Na-Phosphat (pH 7,4) • 500 mM NaCl • 250 mM Imidazole • 1.0 mM L-Serine • 0.5 mM Pyridoxal-5-phosphate • 0.5 mM DTT
All procedures were conducted at 4° C. or on ice. Pellets were suspended in Buffer A containing 1 mg/ml DNAse +Complete EDTA-free protease inhibitor tablet. Cells were lysed using sonication or a French Press device, using standard settings. Lysis was centrifuged at 40000×g for 25 minutes. The supernatant was filtered (0.22 μM) before loading onto a Ni-NTA column.
A gravity flow column containing Ni-NTA resin was equilibrated with 10 CV Buffer A and loaded with filtered cell lysate. The column was then washed with 10 CV Buffer A. Elution was afforded using Buffer B and collected manually as mini-factions. EDTA was added after elution to a final concentration of 1 mM. Fractions were pooled on the basis of the correct band for SHMT visualised via SDS-PAGE and staining.
SHMT Assay Buffer: • 50 mM KH2PO4 (pH 7,4) • 2.0 mM NAD+ • 7.5 mM DTT • 0.3 mM Tetrahydrofolic acid • 4% DMSO
Reaction Start: 20 mM L-Serine
The rate of N5,N10-CH2-THF formation catalyzed by SHMT was monitored at 340 nm by coupling with excess N5,N10-CH2-THF dehydrogenase, which converts NAD+to NADH. Reactions were initiated by adding 20 mM L-Serine. Inhibition of initial velocity was determined by adding various inhibitors of the SHMT reaction and monitored as described. Reactions were measured in a Bio Tek micro titer plate reader following the change in absorption with the formation of NADH for 30 mimnutes.

[1] = Table 2, values given as upper bounds
[2] = Table 2, Arabidopsis thaliana SHMT enzyme assay, values given as upper bounds

Structure (SMILES) | EC50 [1] | other results
CCC1(c2cccc(F)c2)C(C#N)=C(N)Oc2[nH]nc(C)c21 (racemic) [Compound 2.9.] | < 1 µM | –
CCC1(c2ccc(F)c(Br)c2)C(C#N)=C(N)Oc2[nH]nc(C)c21 (racemic) [Compound 2.13.] | < 0.1 µM | –
CCC1(c2ccc(OC(C)(C)C)cc2)C(C#N)=C(N)Oc2[nH]nc(C)c21 (racemic) [Compound 2.27.] | < 10 µM | –
CCC1(c2cccc(C)c2)C(C#N)=C(N)Oc2[nH]nc(C)c21 (racemic) [Compound 2.42.] | < 10 µM | –
CCOC(=O)COc1ccc(C2(CC)C(C#N)=C(N)Oc3[nH]nc(C)c32)cc1[N+](=O)[O-] (racemic) [Compound 2.43.] | < 1 µM | –
CCCCC1(c2cccc(Cl)c2)C(C#N)=C(N)Oc2[nH]nc(C)c21 (racemic) [Compound 2.91.] | < 10 µM | –
CCCCC1(c2cc(Cl)cc(Cl)c2)C(C#N)=C(N)Oc2[nH]nc(C)c21 (racemic) [Compound 2.92.] | < 10 µM | –
CCC1(c2cccc(C(F)(F)F)c2)C(C#N)=C(N)Oc2[nH]nc(COC)c21 (racemic) [Compound 2.97.] | < 10 µM | –
CCCc1n[nH]c2c1C(CC)(c1cccc(C(F)(F)F)c1)C(C#N)=C(N)O2 (racemic) [Compound 2.99.] | < 10 µM | –
Cc1n[nH]c2c1C(c1ccc(OC(F)(F)F)cc1)(C(C)C)C(C#N)=C(N)O2 (racemic) [Compound 2.145.] | < 1 µM | –
N#CC1=C(N)Oc2[nH]nc(C3CC3)c2C1(c1cc(Cl)cc(Cl)c1)C1CCC1 (racemic) [Compound 2.156.] | < 0.1 µM | –
CCC1(c2ccc(Oc3ccccc3)cc2)C(C#N)=C(N)Oc2[nH]nc(C(C)C)c21 (racemic) [Compound 2.160.] | < 10 µM | –
Cc1n[nH]c2c1C(c1cc(Cl)cc(Oc3ccc(Cl)cc3)c1)(C1CC1)C(C#N)=C(N)O2 (racemic) [Compound 2.342] | – | EC50 [2]: < 0.01 µM
Cc1n[nH]c2c1C(c1cc(Cl)cc(Oc3cccc(Cl)c3)c1)(C1CC1)C(C#N)=C(N)O2 (racemic) [Compound 2.347] | – | EC50 [2]: < 0.01 µM
Cc1n[nH]c2c1C(c1cc(Cl)cc(C#N)c1)(C1(F)CC1)C(C#N)=C(N)O2 (racemic) [Compound 2.379] | – | EC50 [2]: < 0.01 µM
Cc1n[nH]c2c1C(c1ccc(-c3ccsc3)s1)(C1CCC1)C(C#N)=C(N)O2 (racemic) [Compound 4.21] | – | EC50 (inhibition of initial velocity of Arabidopsis thaliana SHMT): < 0.01 µM

The next lines start with results.

EC50 [1] | Structure (SMILES) | other results
< 0.1 µM | CCC1(c2cc(F)cc(Br)c2)C(C#N)=C(N)Oc2[nH]nc(C)c21 (racemic) [Compound 2.467] | –
< 0.1 µM | Cc1n[nH]c2c1C(c1cc(Cl)cc(Cl)c1)(C1(F)COC1)C(C#N)=C(N)O2 (racemic) [Compound 2.478] | –
< 0.01 µM | Cc1n[nH]c2c1C(c1cc(C(F)(F)F)cc(C(F)(F)F)c1)(C1(F)COC1)C(C#N)=C(N)O2 (racemic) [Compound 2.501] | –
< 0.01 µM | Cc1n[nH]c2c1C(c1cc(Cl)cc(OCCC(=O)O)c1)(C1CCC1)C(C#N)=C(N)O2 (racemic) [Compound 2.505] | –
< 0.01 µM | COC(=O)c1cc(-c2cc(Cl)cc(C3(C4CCC4)C(C#N)=C(N)Oc4[nH]nc(C)c43)c2)ccc1Cl (racemic) [Compound 2.514] | –
< 0.01 µM | COC(=O)c1ccc(-c2cc(C#N)cc(C3(C4CCC4)C(C#N)=C(N)Oc4[nH]nc(C)c43)c2)cc1F (racemic) [Compound 2.521] | –
< 0.01 µM | Cc1n[nH]c2c1C(c1cc(Cl)cc(-c3cccc(NS(C)(=O)=O)c3)c1)(C1CCC1)C(C#N)=C(N)O2 (racemic) [Compound 2.527] | –
< 0.01 µM | Cc1n[nH]c2c1C(c1cc(Cl)cc(-c3ccc(NS(C)(=O)=O)cc3)c1)(C1CCC1)C(C#N)=C(N)O2 (racemic) [Compound 2.528] | –
< 0.01 µM | CCC1(c2cc(C#N)cc(C(F)(F)F)c2)C(C#N)=C(N)Oc2[nH]nc(C)c21 (racemic) [Compound 2.530] | –
< 0.1 µM | Cc1n[nH]c2c1C(c1cc(C(F)(F)F)cc(C(F)(F)F)c1)(C1CC(O)C1)C(C#N)=C(N)O2 (racemic) [Compound 2.540] | –
< 1 µM | Cc1n[nH]c2c1C(c1ccc(CC(=O)O)c(C#N)c1)(C1CCC1)C(C#N)=C(N)O2 (racemic) [Compound 2.541] | –
